Measured values from US20080287374A1, “BREAST CANCER-RESISTANT PROTEIN INHIBITOR” (KABUSHIKI KAISHA YAKULT HONSHA, priority 2003, published 2008).
Converted amounts (≈) assume the structure as drawn.

Tests used:
[1] = test system: A549/SN-38-4 cell line; experiment: Effect of flavonoid in overcoming anticancer drug (SN-38) resistance of A549/SN-38 cell line; format: cell-based, human; settings: concentration of flavonoid for 50% reduction of relative resistance value to SN-38, A549/SN-38-4, 48 hours; for EC50: Homo sapiens
Description: The A549 cell line or the A549/SN-38-4 cell line was suspended in 10% FBS/Ham's F-12, and the resultant suspension was inoculated into a 96-well microplate, followed by culturing at 5% CO2 and 37° C. overnight (2×10^3 cells/50 μL/well). Thereafter, a solution of a flavonoid and SN-38 in 10% FBS/Ham's F-12 (25 μL) was added to each of the wells, followed by culturing at 5% CO2 and 37° C. for 48 hours. After completion of culturing, the number of viable cells was counted by use of TetraColor ONE according to the attached instruction manual.

[2] = test system: MES-SA/Dx5 cell line; experiment: Effect of flavonoid on multidrug (paclitaxel) resistance of MES-SA/Dx5 cell line; format: cell-based, human; settings: concentration of flavonoid for 50% reduction of relative resistance value to paclitaxel, MES-SA/Dx5 (P-glycoprotein overexpression), 48 hours; for EC50: Homo sapiens, read-out: Resistance overcoming effect EC50
Description: Human uterine cancer MES-SA cell line or MES-SA/Dx5 cell line which had acquired multidrug resistance through overexpression of P-glycoprotein (Cancer Res. 45, 4091-4096 (1985)) was suspended in 10% FBS/DMEM, and the resultant suspension was inoculated into a 96-well microplate, followed by culturing at 5% CO2 and 37° C. overnight (3×10^3 cells/50 μL/well). Thereafter, a solution of a flavonoid and paclitaxel in 10% FBS/DMEM (25 μL) was added to each of the wells, followed by culturing at 5% CO2 and 37° C. for 48 hours. After completion of culturing, the number of viable cells was counted by use of TetraColor ONE according to the attached instruction manual.

EC50 [1] [µg/mL]	EC50 [2] [µg/mL]	Resistance overcoming effect EC50 [1] [µg/mL]	Resistance overcoming effect EC50 [2] [µg/mL]	SMILES
0.53 (≈ 1.42 µM)	–	–	–	COc1ccc(-c2cc(=O)c3c(OC)c(OC)c(OC)cc3o2)cc1OC [Compound 1-25, 3′,4′,5,6,7-Pentamethoxyflavone]
0.054 (≈ 0.125 µM)	–	–	–	COc1ccc(-c2oc3c(OC)c(OC)c(OC)c(OC)c3c(=O)c2OC)cc1OC [Compound 1-24, 3,3′,4′,5,6,7,8-Heptamethoxyflavone]
0.79 (≈ 2.63 µM)	> 1	–	–	COc1ccc(/C=C/C(=O)c2c(O)cc(OC)cc2O)cc1 [Compound 3-8, 2′,6′-Dihydroxy-4,4′-dimethoxychalcone]
0.46 (≈ 1.61 µM)	> 1	–	–	O=c1cc(-c2ccc(O)c(O)c2)oc2cc(O)cc(O)c12 [Compound 1-8, 3′,4′,5,7-Tetrahydroxyflavone]
0.75 (≈ 1.68 µM)	> 1	–	–	COc1cc(-c2cc(=O)c3c(OC)c(OC)c(OC)c(OC)c3o2)c([N+](=O)[O-])cc1OC [Compound 1-20, 2′-Nitro-4′,5,5′,6,7,8-hexamethoxyflavone]
0.04 (≈ 0.133 µM)	> 1	–	–	COc1cc(O)c(C(=O)/C=C/c2ccc(O)cc2)c(OC)c1 [Compound 3-1, 2′,4-Dihydroxy-4′,6′-dimethoxychalcone]
0.081 (≈ 0.194 µM)	> 1	–	–	COc1cc(N)c(-c2cc(=O)c3c(OC)c(OC)c(OC)c(OC)c3o2)cc1OC [Compound 1-5, 2′-Amino-4′,5,5′,6,7,8-hexamethoxyflavone]
–	–	0.84	>1.0	COc1ccc(-c2coc3cc(OC4O[C@H](CO)[C@@H](O)[C@H](O)[C@H]4O)cc(O)c3c2=O)cc1 (some centres unmarked) [Compound 4-2, 5-Hydroxy-4′-methoxyisoflavone-7-glucoside]
0.046 (≈ 0.134 µM)	–	–	–	COc1cc(O)c2c(=O)c(OC)c(-c3ccc(O)c(OC)c3)oc2c1 [Compound 1-22, 4′,5-Dihydroxy-3,3′,7-trimethoxyflavone]
–	–	2.0	–	CC(C)=CCc1c(-c2ccc(O)cc2O)oc2c3c(cc(O)c2c1=O)OC(C)(C)C=C3 [Compound 1-28, 4H,8H-Benzo[1,2-b:3,4-b′]dipyran-4-one,2-(2,4-dihydroxyphenyl)-5-hydroxy-8,8-dimethyl-3-(3-methyl-2-butenyl)]
0.0074 (≈ 0.0198 µM)	> 1	–	–	COc1cc(O)c(C(=O)/C=C/c2cc(OC)c(OC)cc2OC)c(OC)c1 [Compound 3-6, 2′-Hydroxy-2,4,4′,5,6′-pentamethoxychalcone]
0.94 (≈ 2.99 µM)	> 1	–	–	COc1ccc(O)c(C(=O)/C=C/c2cccc(OC)c2OC)c1 [Compound 3-9, 2′-Hydroxy-2,3,5′-trimethoxychalcone]
0.97 (≈ 2.27 µM)	> 1	–	–	COc1cc(/C=C/C(=O)c2cc(Cl)cc(Br)c2O)cc(OC)c1OC [Compound 3-10, 3′-Bromo-5′-Chloro-2′-hydroxy-3,4,5-trimethoxychalcone]
0.14 (≈ 0.459 µM)	> 1	–	–	Cc1ccc(-c2cc(=O)c3cc(Cl)cc(Cl)c3o2)cc1 [Compound 1-18, 6,8-Dichloro-4′-methylflavone]
–	–	0.14	–	COc1cc2oc(-c3ccc(OC4O[C@H](CO)[C@@H](O)[C@H](O)[C@H]4O)cc3)cc(=O)c2c(O)c1OC (some centres unmarked) [Compound 1-26, 5-Hydroxy-6,7-dimethoxyflavone-4′-glucoside]
–	–	0.067	–	CC(C)=CCc1c2c(c(O)c3c1OC(c1ccc(O)cc1)CC3=O)C=CC(C)(C)O2 (centres unmarked) [Compound 2-3, 2H,6H-Benzo[1,2-b:5,4-b′]dipyran-6-one,7,8-dihydro-5-hydroxy-8-(4-hydroxyphenyl)-2,2-dimethyl-10-(3-methyl-2-butenyl)]
0.65 (≈ 1.52 µM)	> 1	–	–	COc1cc(/C=C/C(=O)c2cc(Br)cc(Cl)c2O)cc(OC)c1OC [Compound 3-7, 5′-Bromo-3′-chloro-2′-hydroxy-3,4,5-trimethoxychalcone]
0.16 (≈ 0.563 µM)	> 1	–	–	COc1ccc(/C=C/C(=O)c2ccccc2O)cc1OC [Compound 3-3, 2′-Hydroxy-3,4-dimethoxychalcone]
0.074 (≈ 0.26 µM)	> 1	–	–	COc1cc2oc(-c3ccccc3)cc(=O)c2c(O)c1O [Compound 1-12, 5,6-Dihydroxy-7-methoxyflavone]
0.017 (≈ 0.0598 µM)	> 1	–	–	COc1cc(O)c2c(=O)cc(-c3ccc(O)cc3)oc2c1 [Compound 1-1, 5,4′-Dihydroxy-7-methoxyflavone]
0.13 (≈ 0.454 µM)	> 1	–	–	O=c1c(O)c(-c2ccc(O)cc2)oc2cc(O)cc(O)c12 [Compound 1-7, 3,4′,5,7-Tetrahydroxyflavone]

EC50 [1] [µg/mL]	EC50 [2] [µg/mL]	Resistance overcoming effect EC50 [1] [µg/mL]	Resistance overcoming effect EC50 [2] [µg/mL]	SMILES
0.06 (≈ 0.213 µM)	> 1	–	–	COc1ccc(-c2oc3ccccc3c(=O)c2OC)cc1 [Compound 1-17, 3,4′-Dimethoxyflavone]
0.11 (≈ 0.307 µM)	> 1	–	–	COc1ccc(-c2cc(=O)c3c(OC)c(OC)c(OC)cc3o2)cc1O [Compound 1-13, 3′-Hydroxy-4′,5,6,7-tetramethoxyflavone]
–	–	0.042	–	COc1cc(O)c2c(=O)cc(-c3ccc(OC4O[C@H](CO)[C@@H](O)[C@H](O)[C@H]4O)cc3)oc2c1 (some centres unmarked) [Compound 1-27, 5-Hydroxy-7-methoxyflavone-4′-glucoside]
0.017 (≈ 0.0494 µM)	> 1	–	–	COc1ccc(-c2cc(=O)c3c(O)c(OC)c(OC)cc3o2)cc1O [Compound 1-6, 3′,5-Dihydroxy-4′,6,7-trimethoxyflavone]
0.098 (≈ 0.314 µM)	> 1	–	–	COc1ccc(-c2cc(=O)c3cc(OC)ccc3o2)c(OC)c1 [Compound 1-16, 2′,4′,6-Trimethoxyflavone]
0.03 (≈ 0.106 µM)	> 1	–	–	COc1ccc(-c2cc(=O)c3ccccc3o2)cc1OC [Compound 1-4, 3′,4′-Dimethoxyflavone]
0.15 (≈ 0.496 µM)	> 1	–	–	COc1ccc(C2CC(=O)c3c(O)cc(O)cc3O2)cc1O (centres unmarked) [Compound 2-1, 3′,5,7-Trihydroxy-4′-methoxyflavanone]
0.023 (≈ 0.0574 µM)	> 1	–	–	CCOc1cc(O)c(C(=O)/C=C/c2ccc(OCC)c(OCC)c2)c(OCC)c1 [Compound 3-4, 2′-Hydroxy-3,4,4′,6′-tetraethoxychalcone]
0.015 (≈ 0.0477 µM)	> 1	–	–	COc1cc2oc(-c3ccc(O)cc3)cc(=O)c2c(O)c1OC [Compound 1-19, 5,4′-Dihydroxy-6,7-dimethoxyflavone]
0.48 (≈ 1.68 µM)	> 1	–	–	COc1cc(O)c2c(c1)OC(c1ccc(O)cc1)CC2=O (centres unmarked) [Compound 2-2, 4′,5-Dihydroxy-7-methoxyflavanone]
0.12 (≈ 0.444 µM)	> 1	–	–	O=c1cc(-c2ccc(O)cc2)oc2cc(O)cc(O)c12 [Compound 1-9, 4′,5,7-Trihydroxyflavone]
0.33 (≈ 1.16 µM)	> 1	–	–	COc1ccc(-c2coc3cc(O)cc(O)c3c2=O)cc1 [Compound 4-1, 5,7-Dihydroxy-4′-methoxyisoflavone]
0.1 (≈ 0.393 µM)	> 1	–	–	O=c1cc(-c2ccccc2)oc2cc(O)cc(O)c12 [Compound 1-3, 5,7-Dihydroxyflavone]
–	–	0.17	>1.0	O=c1cc(-c2ccc(O)cc2)oc2cc(OC3O[C@H](CO)[C@@H](O)[C@H](O)[C@H]3O)cc(O)c12 (some centres unmarked) [Compound 1-10, 4′,5-Dihydroxyflavone-7-glucoside]
0.007 (≈ 0.0213 µM)	–	–	–	COc1cc(O)c2c(=O)cc(-c3ccc(OC)c(OC)c3)oc2c1 [Compound 1-23, 5-Hydroxy-3′,4′,7-trimethoxyflavone]
0.52 (≈ 1.84 µM)	> 1	–	–	COc1cccc(-c2cc(=O)c3cc(OC)ccc3o2)c1 [Compound 1-21, 3′,6-Dimethoxyflavone]
–	–	0.18	–	CC(C)=CC1Oc2cc(O)ccc2-c2oc3cc(O)c(C=CC(C)C)c(O)c3c(=O)c21 (centres unmarked) [Compound 5-1, 6H,7H-[1]benzopyrano[4,3-b][1]benzopyran-7-one,3,8,10-trihydroxy-9-(3-methyl-1-butenyl)-6-(2-methyl-1-propenyl)]
0.23 (≈ 0.527 µM)	–	–	–	COc1cc2oc(-c3ccc(O)cc3O)c(CC=C(C)C)c(=O)c2c(O)c1C=CC(C)C [Compound 1-29, 2′,4′,5-Trihydroxy-7-methoxy-6-(3-methyl-1-butenyl)-3-(3-methyl-2-butenyl)-flavone]
0.23 (≈ 0.857 µM)	> 1	–	–	COc1ccc(/C=C/C(=O)c2ccccc2)cc1OC [Compound 3-2, 3,4-Dimethoxychalcone]
0.048 (≈ 0.139 µM)	> 1	–	–	COc1cc(-c2cc(=O)c3c(O)cc(O)cc3o2)cc(OC)c1OC [Compound 1-2, 5,7-Dihydroxy-3′,4′,5′-trimethoxyflavone]

SMILES	EC50 [1] [µg/mL]	EC50 [2] [µg/mL]	Resistance overcoming effect EC50 [1] [µg/mL]	Resistance overcoming effect EC50 [2] [µg/mL]
COc1cc(-c2oc3cc(O)cc(O)c3c(=O)c2O)ccc1O [Compound 1-11, 3,4′,5,7-Tetrahydroxy-3′-methoxyflavone]	0.16 (≈ 0.506 µM)	> 1	–	–
